Results from PMC7044277 (Nature Communications, 2020).
Where “and” joins values, the source holds several entries; their conditions need not be identical. Equal entries are not always repeated.

Legend:
[1] = molecular target: T1, DRD2 F1103.28A (Homo sapiens, UniProt P14416, F110A); type: binding; design: expressed in transfected cells; host or cells: HEK293T (ATCC CRL-11268); conditions: DRD2 F1103.28A; read-out: Ki
[2] = molecular target: T2, 5HT4 (Homo sapiens, UniProt Q13639); assay: β-arrestin2 recruitment (Tango); type: cell-based; conditions: Fig_S10n; for β-arrestin2 recruitment response in presence of serotonin (replicate values): +10μM serotonin; for β-arrestin2 recruitment response (dose-response source data, replicate values): drug alone
T2 construct: expressed in transfected cells; host or cells: HTLA cells expressing TEV-fused β-arrestin2

[3] = molecular target: DRD2 (D2 long receptor) (Homo sapiens, UniProt P14416); assay: Gαi/o-mediated cAMP inhibition (GloSensor split-luciferase cAMP reporter), HEK293T; type: cell-based; conditions: DRD2;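 also: compounds applied 15 min at room temperature, then luciferin plus 400 nM isoproterenol to raise cAMP through endogenous β2-adrenergic receptors, luminescence read 15 min later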
[4] = test system: serotonin receptor (subtype not given; reference agonist serotonin); assay: β-arrestin2 recruitment (Tango), agonist activity, source data Fig_S10m; type: cell-based, human; conditions: drug alone
[5] = molecular target: T1, DRD2 F1103.28A; assay: Gαi/o-mediated cAMP inhibition (GloSensor), mutant; type: cell-based; design: expressed in transfected cells; host or cells: HEK293T (ATCC CRL-11268)
[6] = molecular target: T3, DRD3 (Homo sapiens, UniProt P35462); assay: Gαi/o-mediated cAMP inhibition (GloSensor); type: cell-based; conditions: DRD3, cAMP inhibition
[7] = molecular target: T1, DRD2 F1103.28A; assay: β-arrestin2 recruitment (Tango), mutant; type: cell-based; design: expressed in transfected cells; host or cells: HEK293T (ATCC CRL-11268)
[8] = molecular target: T4, DRD2 F1103.28L (Homo sapiens, UniProt P14416, F110L); assay: Gαi/o-mediated cAMP inhibition (GloSensor), mutant; type: cell-based; conditions: DRD2 F1103.28L (b138 head prints DRD2 F1063.28L)
T4 construct: expressed in transfected cells; host or cells: HEK293T (ATCC CRL-11268)

[9] = molecular target: T5, DRD4 (D4.4 variant) (Homo sapiens, UniProt P21917); assay: Gαi/o-mediated cAMP inhibition (GloSensor); type: cell-based; conditions: DRD4; agonist, cAMP inhibition; read-out: EC50 ± SEM
T5 sequence (P21917 1-419): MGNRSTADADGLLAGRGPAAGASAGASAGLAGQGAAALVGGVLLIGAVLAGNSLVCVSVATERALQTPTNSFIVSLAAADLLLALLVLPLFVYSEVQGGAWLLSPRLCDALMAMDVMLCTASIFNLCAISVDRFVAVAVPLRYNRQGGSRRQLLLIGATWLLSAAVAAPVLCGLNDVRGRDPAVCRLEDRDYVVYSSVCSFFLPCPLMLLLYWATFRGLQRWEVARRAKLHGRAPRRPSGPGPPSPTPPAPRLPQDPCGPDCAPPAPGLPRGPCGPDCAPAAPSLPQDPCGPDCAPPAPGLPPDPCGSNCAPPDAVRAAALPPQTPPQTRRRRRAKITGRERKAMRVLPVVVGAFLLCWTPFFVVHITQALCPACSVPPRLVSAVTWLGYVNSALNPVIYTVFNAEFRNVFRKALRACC

[10] = molecular target: T3, DRD3; assay: β-arrestin2 recruitment (Tango); type: cell-based; conditions: for response, concentration-response data point (replicates): Fig_S10b, drug alone
[11] = test system: 320 non-olfactory GPCRs; type: cell-based; conditions: compound at 1 μM

Chain of DRD2 (D2 long receptor) (P14416 whole entry): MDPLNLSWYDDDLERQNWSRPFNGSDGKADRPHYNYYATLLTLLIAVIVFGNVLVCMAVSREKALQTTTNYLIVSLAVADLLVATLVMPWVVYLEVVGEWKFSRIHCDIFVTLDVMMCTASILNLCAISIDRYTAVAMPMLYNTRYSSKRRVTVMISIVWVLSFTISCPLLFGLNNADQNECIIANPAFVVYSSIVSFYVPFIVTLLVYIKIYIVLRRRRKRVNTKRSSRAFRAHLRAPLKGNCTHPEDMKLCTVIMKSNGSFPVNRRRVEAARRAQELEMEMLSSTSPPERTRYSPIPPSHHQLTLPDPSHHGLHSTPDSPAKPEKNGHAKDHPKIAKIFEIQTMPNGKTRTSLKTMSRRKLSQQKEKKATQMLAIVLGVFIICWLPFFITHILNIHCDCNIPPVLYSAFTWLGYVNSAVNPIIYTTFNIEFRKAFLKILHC
T3 sequence (P35462 whole entry): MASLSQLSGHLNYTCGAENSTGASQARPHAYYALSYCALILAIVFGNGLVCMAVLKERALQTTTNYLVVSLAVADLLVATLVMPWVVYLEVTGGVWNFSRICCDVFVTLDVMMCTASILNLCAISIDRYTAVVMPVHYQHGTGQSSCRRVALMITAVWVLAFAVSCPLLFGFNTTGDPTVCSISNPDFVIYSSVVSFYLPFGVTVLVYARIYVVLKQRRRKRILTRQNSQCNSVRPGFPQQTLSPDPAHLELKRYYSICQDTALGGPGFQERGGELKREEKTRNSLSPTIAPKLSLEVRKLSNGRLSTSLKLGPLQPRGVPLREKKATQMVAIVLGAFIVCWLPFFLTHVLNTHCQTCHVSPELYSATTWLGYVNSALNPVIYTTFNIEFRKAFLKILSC
T1 sequence (P14416 whole entry F110A): as the sequence (P14416 whole entry) above, with F110A counted along it
T2 sequence (Q13639 whole entry, the tested form may be a part): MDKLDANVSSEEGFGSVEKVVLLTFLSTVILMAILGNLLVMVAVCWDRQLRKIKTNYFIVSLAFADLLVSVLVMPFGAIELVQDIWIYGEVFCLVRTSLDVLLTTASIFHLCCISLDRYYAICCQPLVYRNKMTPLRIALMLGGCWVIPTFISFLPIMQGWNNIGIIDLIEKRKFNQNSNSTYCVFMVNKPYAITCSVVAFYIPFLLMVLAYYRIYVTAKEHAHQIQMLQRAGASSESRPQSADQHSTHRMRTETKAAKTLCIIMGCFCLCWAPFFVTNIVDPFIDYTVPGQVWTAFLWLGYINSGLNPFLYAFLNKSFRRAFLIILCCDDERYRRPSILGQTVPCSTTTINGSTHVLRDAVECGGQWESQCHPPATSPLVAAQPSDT
T4 sequence (P14416 whole entry F110L): as the sequence (P14416 whole entry) above, with F110L counted along it

Question: What does the source list for CCOc1cccc2cc([C@H](C)NCC3(O)CCCCC3)oc12 [O4SE6]?
Answer: Ki [1]: 0.52 µM; β-arrestin2 recruitment response in presence of serotonin (replicate values) ([2]; Log[Drug] -6.52): 72.8962; β-arrestin2 recruitment response (dose-response source data, replicate values) ([2]; Log[Drug] -6.52): 1.101; β-arrestin2 recruitment response in presence of serotonin (replicate values) ([2]; Log[Drug] -7): 68.214 and 69.7519 and 58.0435 and 78.1719 and 67.5552 and 58.9312 and 58.5479 and 62.6911 and 62.3338; β-arrestin2 recruitment response (dose-response source data, replicate values) ([2]; Log[Drug] -7): 0.5278 and 0.7799 and 0.9481 and 2.146 and 2.021 and 0.7677 and -0.1447 and -0.08084 and 0.1108; β-arrestin2 recruitment response in presence of serotonin (replicate values) ([2]; Log[Drug] -7.52): 78.4713 and 70.1922 and 60.1136 and 64.4542 and 62.425 and 65.749 and 65.0234 and 67.6362 and 68.0461; β-arrestin2 recruitment response (dose-response source data, replicate values) ([2]; Log[Drug] -7.52): 1.098 and 0.2279 and 1.538 and 2.02 and 1.183 and 1.483 and -0.2732 and 0.4713 and 0.304; β-arrestin2 recruitment response in presence of serotonin (replicate values) ([2]; Log[Drug] -8): 79.2214 and 70.638 and 63.1387 and 67.7854 and 68.476 and 59.8854 and 62.949 and 70.8028 and 62.3669; β-arrestin2 recruitment response (dose-response source data, replicate values) ([2]; Log[Drug] -8): 1.665 and 0.2788 and 1.143 and 1.476 and 0.7729 and 1.19 and -0.1116 and -0.1148 and 0.2053; β-arrestin2 recruitment response in presence of serotonin (replicate values) ([2]; Log[Drug] -8.52): 63.0325 and 66.617 and 68.5815 and 61.4979 and 62.8385 and 69.3531 and 69.1189 and 65.2821 and 54.9164; β-arrestin2 recruitment response (dose-response source data, replicate values) ([2]; Log[Drug] -8.52): 2.264 and 0.3266 and 1.143 (2×) and 0.899 and 0.9417 and -0.211 and 0.2724 and 0.6928; β-arrestin2 recruitment response in presence of serotonin (replicate values) ([2]; Log[Drug] -9): 58.3354 and 69.9419 and 59.2835 and 65.9 and 67.9417 and 62.0583 and 73.9242 and 95.122 and 58.9489; β-arrestin2 recruitment response (dose-response source data, replicate values) ([2]; Log[Drug] -9): 0.7979 and 0.203 and 1.266 and 0.9417 and 1.353 and 2.815 and 0.5659 and 0.7244 and 0.2029; β-arrestin2 recruitment response in presence of serotonin (replicate values) ([2]; Log[Drug] -9.52): 62.0248 and 69.3453 and 57.8541 and 56.9479 and 71.0625 and 61.8156 and 76.4214 and 67.9653 and 74.0649; β-arrestin2 recruitment response (dose-response source data, replicate values) ([2]; Log[Drug] -9.52): 0.3303 and 1.247 and 2.286 and 1.442 and 0.7292 and 1.103 and 0.01536 and 0.2716 and 0.5247; β-arrestin2 recruitment response in presence of serotonin (replicate values) ([2]; Log[Drug] -10): 55.5618 and 63.9322 and 63.2088 and 69.7104 and 76.0792 and 67.2 and 78.0601 and 69.8546 and 82.4903; β-arrestin2 recruitment response (dose-response source data, replicate values) ([2]; Log[Drug] -10): 0.4781 and 0.7712 and 1.0661 and 1.899 and 1.272 and 1.189 and -0.1148 and 0.1124 and 0.5271; β-arrestin2 recruitment response in presence of serotonin (replicate values) ([2]; Log[Drug] -10.52): 62.9859 and 78.1652 and 74.7819 and 66.7635 and 61.4146 and 52.4937 and 74.1336 and 65.8957 and 89.463; β-arrestin2 recruitment response (dose-response source data, replicate values) ([2]; Log[Drug] -10.52): 1.621 and 1.692 and 0.9661 and 0.6417 and 1.106 and 1.144 and 0.4066 and -0.08327 and 0.2078; β-arrestin2 recruitment response in presence of serotonin (replicate values) ([2]; Log[Drug] -11): 82.0434 and 83.1157 and 82.0887 and 77.05 and 73.7271 and 49.1812 and 80.7368 and 81.7578 and 70.7931; β-arrestin2 recruitment response (dose-response source data, replicate values) ([2]; Log[Drug] -11): 0.3285 and 0.5731 and 1.621 and 1.898 and 1.603 and 0.8979 and -0.2789 and 0.3428 and 0.1099; β-arrestin2 recruitment response in presence of serotonin (replicate values) ([2]; Log[Drug] -11.52): 82.4482 and 79.2239 and 74.7068 and 70.1292 and 64.8323 and 73.1583 and 68.2329 and 84.5356 and 79.3843; β-arrestin2 recruitment response (dose-response source data, replicate values) ([2]; Log[Drug] -11.52): 0.3061 and 0.7799 and 0.4241 and 1.31 and 1.564 and 0.9802 and 0.3743 and -0.1811 and 0.5651; β-arrestin2 recruitment response in presence of serotonin (replicate values) ([2]; Log[Drug] -12): 88.7057 and 105.09 and 99.6448 and 69.9375 and 73.7219 and 66.8948 and 92.7613 and 90.5301 and 90.978; β-arrestin2 recruitment response (dose-response source data, replicate values) ([2]; Log[Drug] -12): 1.557 and 0.8835 and 0.5619 and 0.6979 and 1.198 and 1.239 and 0.08246 and 0.08488 and 0.4382; EC50 ([3]; agonist, Gαi/o-mediated cAMP inhibition, read-out: EC50 ± SEM): 0.0185 µM; G protein agonist activity ([3]; cAMP inhibition): selective DRD2 agonist; Emax ([3]; HEK-293T, read-out: Emax relative to quinpirole response, cAMP inhibition): 91.9%; response, Fig_S10m, replicate values ([4]; Log[Drug] -10): -3 and -0.8547 and -1.711 and 1.274 and 0.6519 and 0.6372 and 3.446 and 2.684 and 1.5611; response, Fig_S10m, replicate values ([4]; Log[Drug] -10.52): -1.057 and 0.5825 and 1.112 and 0.2883 and -0.05325 and 2.637 and -1.4637 and 2.006 and 9.099; response, Fig_S10m, replicate values ([4]; Log[Drug] -11): -3.4971 and -1.766 and 0.3518 and 1.196 and 0.9733 and 1.78 and -2.611 and -3.973 and 1.645; response, Fig_S10m, replicate values ([4]; Log[Drug] -11.52): -2.165 and -1.698 and -2.094 and 0.786 and 2.079 and 0.9742 and -3.099 and -0.8266 and -0.3396; response, Fig_S10m, replicate values ([4]; Log[Drug] -12): 0.1375 and -0.9459 and 1.244 and -0.4049 and 1.325 and 0.3957 and -1.831 and -2.73 and 1.919; EC50 [5]: > 10 µM; EC50 ([6]; agonist, read-out: EC50 ± SEM): > 10 µM; G protein agonist activity [6]: no detectable agonist activity; EC50 [7]: > 10 µM; EC50 [8]: > 10 µM; EC50 [9]: > 10 µM; β-arrestin2 recruitment agonist activity ([10]; DRD3, Tango): no detectable agonist activity; EC50 ([10]; DRD3, Tango, read-out: EC50 ± SEM): > 10 µM; response, concentration-response data point (replicates) ([10]; Log[Drug] -11): 0.5878 and 2.511 and 1.194 and 2.15 and 1.1907 and 4.631 and -3.875 and 11.6724 and 8.605; response, concentration-response data point (replicates) ([10]; Log[Drug] -11.52): -0.276 and 0.7993 and -0.05881 and 1.198 and 0.07895 and 5.103 and 9.785 and 5.488 and 1.269; response, concentration-response data point (replicates) ([10]; Log[Drug] -12): 1.3136 and 1.529 and -0.0652 and 0.03793 and 0.02727 and 3.808 and -3.9762 and 0.1686 and 1.294; β-arrestin2 recruitment response at DRD3 (source data, replicate values) ([10]; Log[Drug] -6): 12.3452; β-arrestin2 recruitment response at DRD3 (source data, replicate values) ([10]; Log[Drug] -6.52): 8.082 and 5.965 and 11.0149 and 19.9759 and 10.9551 and 9.221 and 9.014 and 7.197 and 16.9834; β-arrestin2 recruitment response at DRD3 (source data, replicate values) ([10]; Log[Drug] -7): 8.647 and 6.889 and 5.419 and 8.207 and 5.755 and 6.315 and 4.579 and 5.095 and 7.56; β-arrestin2 recruitment response at DRD3 (source data, replicate values) ([10]; Log[Drug] -7.52): 4.34 and 0.6022 and 1.762 and 2.508 and 1.167 and 1.071 and 1.816 and 2.855 and 3.052; β-arrestin2 recruitment response at DRD3 (source data, replicate values) ([10]; Log[Drug] -8): 0.7316 and 0.3304 and 1.058 and 0.6729 and 0.7789 and 1.51 and 1.953 and 1.946 and 0.2868; β-arrestin2 recruitment response at DRD3 (source data, replicate values) ([10]; Log[Drug] -8.52): 1.063 and 0.9542 and 0.434 and 0.6781 and 0.1637 and 0.2619 and 0.09244 and 0.8182 and 0.08985; β-arrestin2 recruitment response at DRD3 (source data, replicate values) ([10]; Log[Drug] -9): -0.1872 and 1.166 and 0.6488 and 0.05773 and 0.4739 and 2.133 and -0.01123 and 0.2998 and -0.1097; β-arrestin2 recruitment response at DRD3 (source data, replicate values) ([10]; Log[Drug] -9.52): 0.6514 and 0.02761 and -0.07333 and 1.513 and -0.1516 and 0.7866 and 1.233 and 1.648 and 0.09503; β-arrestin2 recruitment response at DRD3 (source data, replicate values) ([10]; Log[Drug] -10): 1.257 and -0.3865 and -0.07075 and 0.2387 and 0.7918 and -0.1413 and 0.6108 and 0.3983 and -0.4207; β-arrestin2 recruitment response at DRD3 (source data, replicate values) ([10]; Log[Drug] -10.52): 3.755 and 0.333 and -0.07333 and 2.441 and 0.1379 and -0.03791 and 0.1961 and 1.7564 and 0.1754; β-arrestin2 recruitment response at DRD3 (source data, replicate values) ([10]; Log[Drug] -11): 0.522 and -0.07333 and -0.1743 and 0.2309 and 5.954 and 1.288 and -0.4182 and -0.01901 and 1.549; β-arrestin2 recruitment response at DRD3 (source data, replicate values) ([10]; Log[Drug] -11.52): 1.588 and -0.07592 and 0.1337 and 0.3757 and 0.0448 and -0.03791 and 0.4061 and 1.448 and -0.2186; agonism across 320 nonolfactory GPCRs [11]: only DRD2 activity was observed
